Laboratory results: the CheMixHub viscosity set

Assay: xn = mol fraction of the nth substance listed

CCCCCCO + C1CCCCC1
Settings	viscosity [mPa·s]
293.15 K, 100 kPa, x2 = 0.0817	4.68
293.15 K, 100 kPa, x2 = 0.1603	4.1
293.15 K, 100 kPa, x2 = 0.2421	3.55
293.15 K, 100 kPa, x2 = 0.3502	2.91
293.15 K, 100 kPa, x2 = 0.4409	2.45
293.15 K, 100 kPa, x2 = 0.5593	1.94
293.15 K, 100 kPa, x2 = 0.6517	1.64
293.15 K, 100 kPa, x2 = 0.7396	1.4
293.15 K, 100 kPa, x2 = 0.8512	1.18
293.15 K, 100 kPa, x2 = 0.9402	1.05
303 K, 101.33 kPa, x1 = 0.1	0.8842
303 K, 101.33 kPa, x1 = 0.2008	1.003
303 K, 101.33 kPa, x1 = 0.2997	1.155
303 K, 101.33 kPa, x1 = 0.4002	1.329
303 K, 101.33 kPa, x1 = 0.4994	1.58
303 K, 101.33 kPa, x1 = 0.6004	1.919
303 K, 101.33 kPa, x1 = 0.6986	2.266
303 K, 101.33 kPa, x1 = 0.8004	2.705
303 K, 101.33 kPa, x1 = 0.8991	3.173
303.15 K, 100 kPa, x2 = 0.0817	3.47
303.15 K, 100 kPa, x2 = 0.1603	3.06
303.15 K, 100 kPa, x2 = 0.2421	2.68
303.15 K, 100 kPa, x2 = 0.3502	2.23
303.15 K, 100 kPa, x2 = 0.4409	1.91
303.15 K, 100 kPa, x2 = 0.5593	1.56
303.15 K, 100 kPa, x2 = 0.6517	1.34
303.15 K, 100 kPa, x2 = 0.7396	1.14
303.15 K, 100 kPa, x2 = 0.8512	0.96
303.15 K, 100 kPa, x2 = 0.9402	0.86
303.15 K, 101 kPa, x1 = 0.6491	1.907
303.15 K, 101.33 kPa, x1 = 0.1085	0.9365
303.15 K, 101.33 kPa, x1 = 0.2023	1.058
303.15 K, 101.33 kPa, x1 = 0.3065	1.225
303.15 K, 101.33 kPa, x1 = 0.3939	1.392
303.15 K, 101.33 kPa, x1 = 0.5019	1.641
303.15 K, 101.33 kPa, x1 = 0.6052	1.93
303.15 K, 101.33 kPa, x1 = 0.701	2.255
303.15 K, 101.33 kPa, x1 = 0.7991	2.649
303.15 K, 101.33 kPa, x1 = 0.8894	3.088
308.15 K, 101 kPa, x1 = 0.6491	1.701
313 K, 101.33 kPa, x1 = 0.1	0.7554
313 K, 101.33 kPa, x1 = 0.2008	0.8505
313 K, 101.33 kPa, x1 = 0.2997	0.9723
313 K, 101.33 kPa, x1 = 0.4002	1.115
313 K, 101.33 kPa, x1 = 0.4994	1.302
313 K, 101.33 kPa, x1 = 0.6004	1.526
313 K, 101.33 kPa, x1 = 0.6986	1.781
313 K, 101.33 kPa, x1 = 0.8004	2.083
313 K, 101.33 kPa, x1 = 0.8991	2.417
313.15 K, 100 kPa, x2 = 0.0817	2.61
313.15 K, 100 kPa, x2 = 0.1603	2.33
313.15 K, 100 kPa, x2 = 0.2421	2.04
313.15 K, 100 kPa, x2 = 0.3502	1.72
313.15 K, 100 kPa, x2 = 0.4409	1.49
313.15 K, 100 kPa, x2 = 0.5593	1.24
313.15 K, 100 kPa, x2 = 0.6517	1.08
313.15 K, 100 kPa, x2 = 0.7396	0.93
313.15 K, 100 kPa, x2 = 0.8512	0.79
313.15 K, 100 kPa, x2 = 0.9402	0.72
313.15 K, 101 kPa, x1 = 0.6491	1.63
323 K, 101.33 kPa, x1 = 0.1	0.65
323 K, 101.33 kPa, x1 = 0.2008	0.7271
323 K, 101.33 kPa, x1 = 0.2997	0.8205
323 K, 101.33 kPa, x1 = 0.4002	0.9237
323 K, 101.33 kPa, x1 = 0.4994	1.061
323 K, 101.33 kPa, x1 = 0.6004	1.239
323 K, 101.33 kPa, x1 = 0.6986	1.433
323 K, 101.33 kPa, x1 = 0.8004	1.658
323 K, 101.33 kPa, x1 = 0.8991	1.896
323.15 K, 100 kPa, x2 = 0.0817	2.02
323.15 K, 100 kPa, x2 = 0.1603	1.8
323.15 K, 100 kPa, x2 = 0.2421	1.6
323.15 K, 100 kPa, x2 = 0.3502	1.36
323.15 K, 100 kPa, x2 = 0.4409	1.19
323.15 K, 100 kPa, x2 = 0.5593	1
323.15 K, 100 kPa, x2 = 0.6517	0.87
323.15 K, 100 kPa, x2 = 0.7396	0.77
323.15 K, 100 kPa, x2 = 0.8512	0.67
323.15 K, 100 kPa, x2 = 0.9402	0.61

O=P([O-])(O)O.[NH4+] + O
viscosity [mPa·s], 101 kPa
Settings	293.15 K	303.15 K	313.15 K	323.15 K
x1 = 0.017	1.312	1.049	0.855	0.71
x1 = 0.038	1.826	1.442	1.17	0.972
x1 = 0.063	–	2.196	1.749	1.438
x1 = 0.095	–	–	–	2.325

CC(C)CC(=O)CC(C)C + CCC(C)O
viscosity [mPa·s], 100 kPa
Settings	x1 = 0.0815	x1 = 0.157	x1 = 0.2356	x1 = 0.3483	x1 = 0.4431	x1 = 0.5526	x1 = 0.6467	x1 = 0.7381	x1 = 0.8512	x1 = 0.9337
293.15 K	2.84	2.17	1.64	1.1	0.8	0.61	0.59	0.66	0.78	0.87
298.15 K	2.36	1.82	1.36	0.88	0.63	0.47	0.45	0.54	0.69	0.81
303.15 K	2	1.54	1.15	0.73	0.5	0.37	0.35	0.44	0.61	0.75
308.15 K	1.69	1.33	0.99	0.64	0.44	0.31	0.27	0.36	0.56	0.72
313.15 K	1.42	1.11	0.85	0.55	0.39	0.27	0.24	–	0.51	0.66
318.15 K	1.23	0.99	0.77	0.5	0.35	0.22	0.19	0.27	0.47	0.62
323.15 K	1.11	0.91	0.72	0.46	0.3	0.17	0.15	0.23	0.42	0.57

CCOCC + CCCO
101 kPa
Settings	viscosity [mPa·s]
298.15 K, x1 = 0.09896	1.404
298.15 K, x1 = 0.1949	1.024
298.15 K, x1 = 0.3032	0.753
298.15 K, x1 = 0.4198	0.562
298.15 K, x1 = 0.5476	0.427
298.15 K, x1 = 0.6864	0.336
298.15 K, x1 = 0.8353	0.272
303.16 K, x1 = 0.07	1.682
303.16 K, x1 = 0.15	1.591
303.16 K, x1 = 0.25	1.417
303.16 K, x1 = 0.37	1.237
303.16 K, x1 = 0.47	0.8879
303.16 K, x1 = 0.59	0.6163
303.16 K, x1 = 0.73	0.4922
303.16 K, x1 = 0.78	0.3645
303.16 K, x1 = 0.92	0.2804

CCCCCCO + CCCCCCC
viscosity [mPa·s], 101.33 kPa
Settings	x1 = 0.0567	x1 = 0.1134	x1 = 0.2217	x1 = 0.3279	x1 = 0.4307	x1 = 0.5294	x1 = 0.6292	x1 = 0.7248	x1 = 0.8643	x1 = 0.9526
298.15 K	0.4405	0.4541	0.5473	0.6831	0.8745	1.142	1.523	2.047	2.93	3.788
308.15 K	0.396	0.4021	0.4788	0.5863	0.7378	0.9541	1.201	1.574	2.299	2.921

CCCCCCO + CCO
Settings	viscosity [mPa·s]
298.15 K, 101.33 kPa, x2 = 0.1094	4.001
298.15 K, 101.33 kPa, x2 = 0.2099	3.537
298.15 K, 101.33 kPa, x2 = 0.3973	2.828
298.15 K, 101.33 kPa, x2 = 0.5015	2.484
298.15 K, 101.33 kPa, x2 = 0.5903	2.214
298.15 K, 101.33 kPa, x2 = 0.6925	1.894
298.15 K, 101.33 kPa, x2 = 0.8012	1.574
298.15 K, 101.33 kPa, x2 = 0.899	1.305
303.15 K, 101 kPa, x2 = 0.1433	3.364
303.15 K, 101 kPa, x2 = 0.2814	2.887
303.15 K, 101 kPa, x2 = 0.487	2.241
303.15 K, 101 kPa, x2 = 0.6448	1.807
303.15 K, 101 kPa, x2 = 0.7691	1.509
303.15 K, 101 kPa, x2 = 0.8692	1.28
303.15 K, 101 kPa, x2 = 0.9524	1.093
